Results published in patent US11576897B2, “Therapeutic agent for non-motor symptoms associated with Parkinson's disease” (priority 2017, dated 2023).
Read-outs that look alike come from different tables or passages of the source.

Columns and labels:
human 5-HT2A receptor = human 5-HT2A receptor (Homo sapiens (Human), UniProt P28223); assay: biochemical; type: binding; settings: read-out: 5-HT2A receptor binding inhibition constant Ki
[1] = molecular target: human serotonin transporter (SERT) (Homo sapiens (Human), UniProt P31645); assay: Human serotonin transporter (SERT) binding test; settings: [3H]-citalopram, h-SERT/CHO cell membrane; read-out: h-SERT binding inhibition constant Ki
[2] = [3H]-ketanserin, human 5-HT2A receptor-expressed CHO cell membrane

CNCc1cc(OCc2ccccc2)n(Cc2ccccc2)n1 [Example 1, 1-[l-benzyl-5-(benzyloxy)-1H-pyrazol-3-yl]-N-methylmethanamine]
Ki (human 5-HT2A receptor; [2]): 5.5 nM

CNCc1cc(OCc2ccccc2)n(CC2CCCCC2)n1 [Example 5, 1-[5-(benzyloxy)-1-(cyclohexylmethyl)-1H-pyrazol-3-yl]-N-methylmethanamine]
Ki (human 5-HT2A receptor): 5.9 nM

CNCc1cc(OCc2ccccc2F)n(CC2CCCCC2)n1 [Example 20, 1-{1-(cyclohexylmethyl)-5-[(2-fluorobenzyl)oxy]-1H-pyrazol-3-yl}-N-methylmethanamine]
Ki [1]: 1.6 nM | Ki (human 5-HT2A receptor; [2]): 0.65 nM

CNCc1cc(OCc2ccc(F)cc2Cl)n(CC2CCCCC2)n1 [Example 30, 1-{5-[(2-chloro-4-fluorobenzyl)oxy]-1-(cyclohexylmethyl)-1H-pyrazol-3-yl}-N-methylmethanamine]
Ki [1]: 1.5 nM | Ki (human 5-HT2A receptor; [2]): 0.52 nM

CNCc1cc(OCc2ccc(F)cc2C)n(CC2CCCCC2)n1 [Example 31, 1-{1-(cyclohexylmethyl)-5-[(4-fluoro-2-methylbenzyl)oxy]-1H-pyrazol-3-yl}-N-methylmethanamine]
Ki (human 5-HT2A receptor): 1.4 nM

CNCc1cc(OCc2cc(F)ccc2F)n(CC2CCCCC2)n1 [Example 33, 1-{1-(cyclohexylmethyl)-5-[(2,5-difluorobenzyl)oxy]-1H-pyrazol-3-yl}-N-methylmethanamine]
Ki (human 5-HT2A receptor; [2]): 0.5 nM

CNCc1cc(OCc2cc(F)ccc2Cl)n(CC2CCCCC2)n1 [Example 37, 1-{5-[(2-chloro-5-fluorobenzyl)oxy]-1-(cyclohexylmethyl)-1H-pyrazol-3-yl}-N-methylmethanamine]
Ki [1]: 0.89 nM | Ki (human 5-HT2A receptor): 2.1 nM

CNCc1cc(OCc2cc(Cl)ccc2Cl)n(CC2CCCCC2)n1 [Example 38, 1-{1-(cyclohexylmethyl)-5-[(2,5-dichlorobenzyl)oxy]-1H-pyrazol-3-yl}-N-methylmethanamine]
Ki [1]: 2.4 nM | Ki (human 5-HT2A receptor; [2]): 3.2 nM

CNCc1cc(OCc2ccc(F)cc2C)n(CC2CCCCO2)n1 (stereo not shown) [Example 108, 1-{5-[(4-fluoro-2-methylbenzyl)oxy]-1-(tetrahydro-2H-pyran-2-ylmethyl)-1H-pyrazolo-3-yl}-N-methylmethanamine]
Ki [1]: 1.9 nM | Ki (human 5-HT2A receptor; [2]): 4.8 nM

CNCc1cc(OCc2ccccc2)n(CC2CC3CCC2C3)n1 (stereo not shown) [Example 115, 1-[5-(benzyloxy)-1-(bicyclo[2.2.1]hept-2-ylmethyl)-1H-pyrazol-3-yl]-N-methylmethanamine]
Ki (human 5-HT2A receptor; [2]): 1 nM

CNCc1cc(OCc2cc(F)ccc2F)n(CC2CC3CCC2C3)n1 (stereo not shown) [Example 117, 1-{1-(bicyclo[2.2.1]hept-2-ylmethyl)-5-[(2,5-difluorobenzyl)oxy]-1H-pyrazol-3-yl}-N-methylmethanamine]
Ki [1]: 0.5 nM | Ki (human 5-HT2A receptor): 0.76 nM

CNCc1cc(OCc2cc(Cl)ccc2F)n(CC2CC3CCC2C3)n1 (stereo not shown) [Example 118, 1-{1-(bicyclo[2.2.1]hept-2-ylmethyl)-5-[(5-chloro-2-fluorobenzyl)oxy]-1H-pyrazol-3-yl}-N-methylmethanamine]
Ki [1]: 2 nM | Ki (human 5-HT2A receptor; [2]): 0.73 nM

CNCc1cc(OCc2cc(F)ccc2F)n(CC2CCC(F)(F)CC2)n1 [Example 124, 1-{5-[(2,5-difluorobenzyl)oxy]-1-[(4,4-difluorocyclohexyl)methyl]-1H-pyrazol-3-yl}-N-methylmethanamine]
Ki [1]: 0.71 nM | Ki (human 5-HT2A receptor; [2]): 1.7 nM

CNCc1cc(OCc2cc(F)ccc2F)n(CC2(F)CCCCC2)n1 [Example 127, 1-{5-[(2,5-difluorobenzyl)oxy]-1-[(1-fluorocyclohexyl)methyl]-1H-pyrazol-3-yl}-N-methylmethanamine]
Ki [1]: 1.3 nM

CNCc1cc(OCc2ccc(F)cc2)n(CC2CCCC2)n1 [Example 137, 1-{1-(cyclopentylmethyl)-5-[(4-fluorobenzyl)oxy]-1H-pyrazol-3-yl}-N-methylmethanamine]
Ki (human 5-HT2A receptor; [2]): 1.3 nM

CNCc1cc(OCc2ccccc2Cl)n(CC2CCCC2)n1 [Example 138, 1-{5-[(2-chlorobenzyl)oxy]-1-(cyclopentylmethyl)-1H-pyrazol-3-yl}-N-methylmethanamine]
Ki [1]: 1.8 nM | Ki (human 5-HT2A receptor; [2]): 11 nM

CNCc1cc(OCc2ccc(F)cc2F)n(CC2CCCC2)n1 [Example 144, 1-{1-(cyclopentylmethyl)-5-[(2,4-difluorobenzyl)oxy]-1H-pyrazol-3-yl}-N-methylmethanamine]
Ki (human 5-HT2A receptor): 0.2 nM

CNCc1cc(OCc2cc(Cl)ccc2F)n(CC2CCCC2)n1 [Example 148, 1-{5-[(5-chloro-2-fluorobenzyl)oxy]-1-(cyclopentylmethyl)-1H-pyrazol-3-yl}-N-methylmethanamine]
Ki (human 5-HT2A receptor): 1.8 nM

CNCc1cc(OCc2ccccc2C#N)n(CC2CCCC2)n1 [Example 162, 2-[({1-(cyclopentylmethyl)-3-[(methylamino)methyl]-1H-pyrazol-5-yl}oxy)methyl]benzonitrile]
Ki [1]: 7.8 nM | Ki (human 5-HT2A receptor): 2.7 nM

CNCc1cc(OCc2ccccc2F)n(Cc2ccc(F)cc2)n1 [Example 218, 1-{1-(4-fluorobenzyl)-5-[(2-fluorobenzyl)oxy]-1H-pyrazol-3-yl}-N-methylmethanamine]
Ki (human 5-HT2A receptor): 1.2 nM

CNCc1cc(OCc2cc(F)ccc2F)n(Cc2ccc(F)cc2)n1 [Example 219, 1-{5-[(2,5-difluorobenzyl)oxy]-1-(4-fluorobenzyl)-1H-pyrazol-3-yl}-N-methylmethanamine]
Ki (human 5-HT2A receptor; [2]): 1.3 nM

CNCc1cc(OCc2cc(F)ccc2F)n(Cc2ccc(Cl)cc2)n1 [Example 224, 1-{1-(4-chlorobenzyl)-5-[(2,5-difluorobenzyl)oxy]-1H-pyrazol-3-yl}-N-methylmethanamine]
Ki [1]: 1.5 nM | Ki (human 5-HT2A receptor; [2]): 1.2 nM

CNCc1cc(OCc2cc(F)ccc2F)n(Cc2ccc(C)cc2)n1 [Example 230, 1-{5-[(2,5-difluorobenzyl)oxy]-1-(4-methylbenzyl)-1H-pyrazol-3-yl}-N-methylmethanamine]
Ki (human 5-HT2A receptor; [2]): 2.7 nM

CNCc1cc(OCc2cc(Cl)ccc2F)n(CC(C)C)n1 [Example 256, 1-{5-[(5-chloro-2-fluorobenzyl)oxy]-1-(2-methylpropyl)-1H-pyrazol-3-yl}-N-methylmethanamine]
Ki (human 5-HT2A receptor; [2]): 4.5 nM

CNCc1cc(OCc2cc(Cl)ccc2F)n(CC(C)(C)C)n1 [Example 259, 1-{5-[(5-chloro-2-fluorobenzyl)oxy]-1-(2,2-dimethylpropyl)-1H-pyrazol-3-yl}-N-methylmethanamine]
Ki (human 5-HT2A receptor; [2]): 7.5 nM

CNCc1cc(OCc2cc(F)ccc2F)n(CCC(C)(C)C)n1 [Example 266, 1-{5-[(2,5-difluorobenzyl)oxy]-1-(3,3-dimethylbutyl)-1H-pyrazol-3-yl}-N-methylmethanamine]
Ki (human 5-HT2A receptor; [2]): 0.65 nM

CNCc1cc(OCc2cc(F)c(F)cc2F)n(CC2CCCC2)n1 [Example 280, 1-{1-(cyclopentylmethyl)-5-[(2,4,5-trifluorobenzyl)oxy]-1H-pyrazol-3-yl}-N-methylmethanamine]
Ki (human 5-HT2A receptor; [2]): 1.3 nM

CNCc1cc(OCc2cc(F)c(F)cc2F)n(CCC(C)(C)C)n1 [Example 284, 1-{1-(3,3-dimethylbutyl)-5-[(2,4,5-trifluorobenzyl)oxy]-1H-pyrazol-3-yl}-N-methylmethanamine]
Ki (human 5-HT2A receptor; [2]): 1.8 nM

CNCc1cc(OCc2cc(F)c(F)cc2F)n(Cc2ccc(C)cc2)n1 [Example 286, N-methyl-1-{1-(4-methylbenzyl)-5-[(2,4,5-trifluorobenzyl)oxy]-1H-pyrazol-3-yl}methanamine]
Ki (human 5-HT2A receptor; [2]): 2.4 nM

CNCc1cc(OCc2ccccc2)n(C(C)C2CCCC2)n1 (stereo not shown) [Example 288, 1-[5-(benzyloxy)-1-(1-cyclopentylethyl)-1H-pyrazol-3-yl]-N-methylmethanamine]
Ki (human 5-HT2A receptor): 5.2 nM

CNCc1cc(OCc2cc(Cl)ccc2F)n(C(C)C2CCCC2)n1 (stereo not shown) [Example 291, 1-{5-[(5-chloro-2-fluorobenzyl)oxy]-1-(1-cyclopentylethyl)-1H-pyrazol-3-yl}-N-methylmethanamine]
Ki [1]: 1.2 nM | Ki (human 5-HT2A receptor; [2]): 2.5 nM

CNCc1cc(OCc2ccccc2)n(C(C)C2CCCCC2)n1 (stereo not shown) [Example 292, 1-[5-(benzyloxy)-1-(1-cyclohexylethyl)-1H-pyrazol-3-yl]-N-methylmethanamine]
Ki [1]: 0.96 nM | Ki (human 5-HT2A receptor; [2]): 1.2 nM

CNCc1cc(OCc2ccccc2F)n(C(C)C2CCCCC2)n1 (stereo not shown) [Example 293, 1-{1-(1-cyclohexylethyl)-5-[(2-fluorobenzyl)oxy]-1H-pyrazol-3-yl}-N-methylmethanamine]
Ki [1]: 0.67 nM | Ki (human 5-HT2A receptor; [2]): 1.1 nM

CNCc1cc(OCc2ccc(F)cc2)n(C(C)C2CCCCC2)n1 (stereo not shown) [Example 295, 1-{1-(1-cyclohexylethyl)-5-[(4-fluorobenzyl)oxy]-1H-pyrazol-3-yl}-N-methylmethanamine]
Ki [1]: 0.95 nM | Ki (human 5-HT2A receptor; [2]): 0.74 nM

CNC(C)c1cc(OCc2cc(F)ccc2F)n(CCC2CCCC2)n1 (stereo not shown) [Example 315, 1-{1-(2-cyclopentylethyl)-5-[(2,5-difluorobenzyl)oxy]-1H-pyrazol-3-yl}-N-methylethanamine]
Ki (human 5-HT2A receptor; [2]): 0.6 nM

CNCc1cc(OCc2ccccc2)n(C(CF)C2CCCCC2)n1 (stereo not shown) [Example 330, 1-[5-(benzyloxy)-1-(1-cyclohexyl-2-fluoroethyl)-1H-pyrazol-3-yl]-N-methylmethanamine]
Ki (human 5-HT2A receptor): 2.8 nM

CNCc1cc(OCc2cccc(Cl)c2)n(CC2CCc3ccccc3O2)n1 (stereo not shown) [Example 341, 1-{5-[(3-chlorobenzyl)oxy]-1-(3,4-dihydro-2H-chromen-2-ylmethyl)-1H-pyrazol-3-yl}-N-methylmethanamine]
Ki (human 5-HT2A receptor): 4.9 nM

Fc1ccc(F)c(COc2cc(CNC3CC3)nn2CC2CCCCC2)c1 [Example 342, N-({1-(cyclohexylmethyl)-5-[(2,5-difluorobenzyl)oxy]-1H-pyrazol-3-yl}methyl)cyclopropanamine]
Ki (human 5-HT2A receptor; [2]): 4.9 nM

CNCc1cc(OC(F)(F)c2ccccc2)n(CC2CCCCC2)n1 [Example 349, 1-{1-(cyclohexylmethyl)-5-[difluoro(phenyl)methoxy]-1H-pyrazol-3-yl}-N-methylmethanamine]
Ki (human 5-HT2A receptor): 6 nM

Cl.[2H]C([2H])(Oc1cc(CNC)nn1CC1CCCCC1)c1cc(F)ccc1F [Example 497, 1-[1-(Cyclohexylmethyl)-5-{[(2,5-difluorophenyl) (^2H2)methyl]oxy}-1H-pyrazol-3-yl]-N-methylmethanamine Hydrochloride]
Ki (human 5-HT2A receptor; [2]): 2.4 nM
